According to US20220117993A1, “Compounds Useful in HIV Therapy” (GlaxoSmithKline Intellectual Property (No. 2) Limited, priority 2018, published 2022):

Assay: Rat pharmacokinetics, single intramuscular injection
Type: in vivo, Male Wistar Han rats
Settings: single IM dose 20 mg/kg, suspension 10 mg/mL; EFdA in blood, FIG. 2 and 3
Method: The pharmacokinetics of Compounds 6 and 21 after a single intramuscular (IM) injection were evaluated in Male Wistar Han rats. The test compound was suspended in a 2% P407, 2% PEG3350, 3.5% Mannitol formulation at 10 mg/mL concentration. A single dose of 20 mg/kg of test compound was injected (2 mL/kg) IM into the right gastrocnemius muscle (n=3). Blood samples were collected via a lateral tail vein at the following time points: Day 1 [30 min, 1 h, 3 h, 5 h, 7 h], Days 2-5, Days 7, 10, 14, 17, 21, 24, 28, 31, 35, 38, 42, 45, 49, 52, 56, 59, 63, 66 and 70, etc. To evaluate test compound and EFdA concentrations, approximately 150 μL of blood was collected into a NaFL/Na2EDTA tube. Exactly 150 μL of blood was then pipetted into a new tube, mixed with 150 μL of 100 mM ammonium acetate pH4, (some of the prodrugs required mixing with 1.5 μL of FA as stabilizer), vortexed, immediately frozen on dry ice and stored at −80° C. until analysis. […] The supernatants were then analyzed by UPLC/MS-MS (Triple Quad™ 6500+). Pharmacokinetic parameters were evaluated using a non-compartmental model of the non-compartmental analysis tool, Pharsight Phoenix WinNonlin® 6.4 software.

For `C#C[C@]1(CO)O[C@@H](n2cnc3c(N)nc(F)nc32)C[C@@H]1OC(=O)CC(C)(C)c1c(C)cc(C)cc1OC(C)=O` [Example 21, (2R,3S,5R)-5-(6-amino-2-fluoro-9H-purin-9-yl)-2-ethynyl-2-(hydroxymethyl)tetrahydrofuran-3-yl 3-(2-acetoxy-4,6-dimethylphenyl)-3-methylbutanoate], the “sustained exposure to EFdA out to” value was “does not afford a sustained release profile”.
